The values that follow come from PubChem BioAssay (NCI).

Test systems include HCC-2998 colon; HCT-15 colon; HOP-92 NSCLC; NCI-H226 lung; OVCAR-3 ovarian; SF-295 CNS; SK-OV-3 ovarian; SNB-19 CNS; SR leukemia; U251 CNS.
Experiment in all cases: inhibition of tumour cell growth, NCI panel, 48 h

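How tested: cells in 96-well plates exposed to compound for 48 hours at five concentrations. The concentration for 50% growth inhibition is given as GI50. At the TGI there is no net growth.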

In the case of `COC(=O)[C@]12CCC(C)(C)C[C@H]1C1=CC[C@@H]3[C@@]4(C)C/C(=C/c5cccnc5)C(=O)C(C)(C)[C@@H]4CC[C@@]3(C)[C@]1(C)CC2`, the GI50 with HCC-2998 colon is 5.56 µM; with HCT-15 colon, 4.58 µM; with HOP-92 NSCLC, 1.87 µM; in the test with NCI-H226 lung, 3.97 µM; with OVCAR-3 ovarian, 4.16 µM; in the test on SF-295 CNS, 9.67 µM. Further, the GI50 in the test on SK-OV-3 ovarian was 27.5 µM; with SNB-19 CNS, 15.1 µM; with SR leukemia, 4.52 µM; with U251 CNS it was 13.5 µM. The TGI with HCC-2998 colon amounted to 19.5 µM; in the test on HCT-15 colon it was 30.5 µM; with HOP-92 NSCLC, 8.41 µM; in the test with NCI-H226 lung, 17.9 µM; in the test on OVCAR-3 ovarian it was 27.9 µM; in the test with SF-295 CNS, 40.4 µM. In addition, the TGI with SK-OV-3 ovarian was over 100 µM; with SNB-19 CNS, 77.4 µM; in the test on SR leukemia, 93.6 µM; in the test on U251 CNS, 46.9 µM.
Take `COc1cccc(NCc2nnc(Nc3ccc(Cl)cc3)c3ccccc23)c1`: the GI50 in the test on HCC-2998 colon is 3.44 µM; in the test with HCT-15 colon, 1.78 µM; with HOP-92 NSCLC, 0.329 µM; in the test with NCI-H226 lung it was 0.956 µM; in the test on OVCAR-3 ovarian, 1.65 µM; with SF-295 CNS it was 1.94 µM. Also, the GI50 is 1.13 µM in the test on SK-OV-3 ovarian, 3.5 µM in the test on SNB-19 CNS, 0.979 µM in the test on SR leukemia and 2.78 µM in the test with U251 CNS. Besides, the TGI in the test on HCC-2998 colon amounted to 8.79 µM; with HCT-15 colon, 7.56 µM; in the test with HOP-92 NSCLC it was 2.91 µM; with NCI-H226 lung, 6.82 µM; with OVCAR-3 ovarian, 10 µM; in the test with SF-295 CNS it was 8.25 µM. For the same compound, the TGI turned out to be 8.19 µM in the test on SK-OV-3 ovarian, 13 µM with SNB-19 CNS, 8.85 µM in the test on SR leukemia and 6.54 µM in the test on U251 CNS.
For `O=c1[nH]c(=O)n(C2CC(O)C(CS)O2)cc1F` (stereo not given), the TGI is over 100 µM in the test with HCC-2998 colon; over 100 µM in the test with HCT-15 colon; over 96.7 µM in the test on HOP-92 NSCLC; over 100 µM in the test with NCI-H226 lung; over 100 µM in the test on OVCAR-3 ovarian; over 100 µM in the test on SF-295 CNS. The TGI in the test on SK-OV-3 ovarian, in the test with SNB-19 CNS, in the test with SR leukemia and in the test with U251 CNS was over 100 µM each time.
